Data on 15 substances can be found in patent publication US7928186B2, “Cell permeable bioactive peptide conjugates” (Phoenix Pharmaceuticals, Inc., priority 2006, dated 2011).

Bridge positions count the residues as written; N and C are the ends. Ends that are not written are not given here. * marks the point of attachment. Acm = CC(=O)NC*

The subject of one assay is humans. Conditions: infusion of normal postprandial concentrations, over 24 h; cited from earlier work.
Assay [1] relates to dissociate and cultured cortical neurons. Nature of the assay: Mobilization of intracellular Ca2+ in dissociate cultured cortical neurons (Fura-2 AM fluorescence). The assay is classed as cell-based, rat (newborn Sprague-Dawley). From the text:
Neurons can be isolated from cerebral cortex according to the protocols for postnatal dissociated nuerons as disclosed for example by Huettner, J. E. and Baughman, R. W., Primary Culture of Identified Neurons From the Visual Cortex of Postnatal Rats, Journal of Neurosciences 6; 3044-3060 (1986); Brewer, G. J., Isolation and Culture of Adult Rat Hippocampal Neurons, Journal of Neuroscience Methods, 71:143-155 (1997); and Brailoiu et al., NAADP Potentiates Neurite Outgrowth, Journal of Biological Chemistry (in press), each hereby incorporated by reference. Newborn Sprague-Dawley rates (about 1 day to about 4 days old) were killed by cervical dislocation. Cerebral cortex was removed and quickly immersed in ice-cold phosphate buffer solution. After removal of meninges, tissue was minced into about I-millimeter blocks, incubated for about 45 minutes at 37° C. in Hanks balanced salt solution without Ca^2+ and Mg^2+ (Invitrogen, 1600 Faraday Avenue, Carlsbad, Calif. 92008) and supplemented with about 200 ug/mL penicillin, 0.1% EDTA and papain 0.15 mg/mL (Sigma-Aldrich, St. Louis, Mo.). In accordance with the procedure disclosed by Brewer, the tissue can be further dissociated by gentle mechanical trituration. After centrifugation at 500×g, cells can be re-suspended in fetal serum free media containing Neurobasal-ATM medium supplemented with […], 100 unites penicillin, 100 ug streptomycin, and B27 supplement all of which can be obtained for example from Invitrogen. The resulting cells can be plated at a low density of about 10^4 on round glass coverslips in twenty four well plates. Neurons were cultured at 37° C. in […] and 5% carbon dioxide for about 3 days to about 5 days. The mitotic inhibitor, cytosine P-arabino furanosidde (about 1 μM) which can be obtained from Sigma-Aldrich can be added to cultured neurons to inhibit glial cell proliferation according to the procedure disclosed by Billingsley, M. L. and Mandel, H. G., Effects of DNA Synthesis Inhibitors on Post-Traumatic Glial Cell Proliferation, Journal of Pharmacology and Experimental Therapeutics, 222: 765-770 (1982).
Measurement of mobilized intracellular calcium ion (Ca^2+) in dissociate cultured neurons in response to peptide fragments of HIV-1 Tat polypeptides can be performed as disclosed by Brailoiu E. et al. Neurons cultured about 24 hours on coverslips as above-described were loaded in HBBS with 5μ Fura-2 AM dye at room temperature (about 20° C.) for about 45 minutes in the dark, then washed three times with Fura-2 AM free buffer and allowed to incubate to allow de-esterification of the dye for about 45 minutes. Under these conditions, compartmentalization of the dye was minimal (about 9.2%±0.2% n=6) as judged from the ratio of fluorescence signals after selective permeabilization of the plasma membrane (10 μM β-escein) and full permeabilization of the cultured cells (60 μg/mL saponin). The coverslips were mounted in a custom designed bath on the stage of a S300 Axiovert […] inverted microscope equipped with a C&L Instruments fluorimeter as described by Brailoiu et al. The Fura-2 fluorescent signal was calibrated by successive addition of 20 μg/mL digitonin, 20 mM EDTA, and 0.5 mM MnCl2.
Table 1. Effect of HIV1-Tat Polypeptides on [Ca^2+] Response in Dissociate and Cultured Cortical Neurons

Assay [2] concerns rat medulla oblongata (NTS, RVLM). Conditions: cited from earlier work.

Take Peptide YY(3-36) [PYY(3-36)]: in the assay on humans, the “reduction of food intake” value is given as 33%.

Consider “HIV1 62-86 (SQTHQASLSKQPTSQPRGDPTGPKE; Human immunodeficiency virus type 1) [peptide fragment of the C-terminal region of the HIV1 30-86 peptide]”, for which the “[Ca^2+] response” value in assay [1] (n = 5-10) is recorded as “No Response”.

“HIV1 48-84 (GRKKRRQRRRAHQNSQTHQASLSKQPTSQPRGDPTGP; Human immunodeficiency virus type 1) [peptide fragment of the HIV1 30-86 peptide]”: the “[Ca^2+] response” value in assay [1] (n = 5-10) is reported as 80 ± 28 nM.

As for “HIV1 30-57 (Cys30-Cys37)(Cys 31-Cys34) (CCFHCQVCFITKALGISYGRKKRRQRRR; disulfide 1-8, 2-5) [HIV1 30-57 (Cys30-Cys37)(Cys31-Cys34), 14]”, the “[Ca^2+] response” value in assay [1] (n = 5-10) worked out at 197 ± 46 nM.

For the substance “HIV1 30-57 (Cys31-Cys37)(Cys 31-ACM)(Cys34-ACM) (C(Acm)CFHC(Acm)QVCFITKALGISYGRKKRRQRRR; disulfide 2-8) [HIV1 30-48 (Cys 30 ACM)(Cys 31-Cys 37 disulfide)(Cys 34 ACM) with transport region HIV1 49-57]”, the “[Ca^2+] response” value in assay [1] (n = 5-10) is given as 197 ± 35 nM.

Consider “HIV1 30-47 (Cys30-Cys34)(Cys31-Cys37) (CCFHCQVCFITKALGISY; disulfide 1-5, 2-8) [HIV1 30-47 (Cys 30-Cys34)(Cys 31-Cys37), HIV1 Tat fragment which lacks the second transport peptide region]”, for which the “[Ca^2+] response” value is on record as “No Response” in assay [1] (n = 5-10 in a column of its own, listed as 30-47 (Cys 30-Cys34)(Cys 31-Cys37)) and “cannot mobilize intracellular calcium ion” in assay [1] (n = 5-10 in a column of its own, listed as HIV1 30-47 (Cys30-Cys34)(Cys31-Cys37)).

Regarding “RKKRRQRRR (Human immunodeficiency virus type 1) [HIV1 49-57, Tat transduction domain, transport peptide region alone]”, in assay [1] (n = 5-10), the “[Ca^2+] response” value is on record as “No Response”.

For “HIV1 58-86 (AHQNSQTHQASLSKQPTSQPRGDPTGPKE; Human immunodeficiency virus type 1) [peptide fragment of the C-terminal region of the HIV1 30-86 peptide]”, in assay [1] (n = 5-10), the “[Ca^2+] response” value is given as 54 ± 28 nM.

Consider “HIV1 30-57 (Cys30-Cys31)(Cys 34-Cys37) (CCFHCQVCFITKALGISYGRKKRRQRRR; disulfide 1-2, 5-8) [HIV1 30-57 (Cys30-Cys31)(Cys34-Cys37)]”, for which the “[Ca^2+] response” value in assay [1] (n = 5-10) was found to be 258 ± 54 nM.

Take “HIV1 32-62 (Cys34-Cys37): HIV1 Tat polypeptide fragment 32-62 with Cys34-Cys37 disulfide (FHCQVCFITKALGISYGRKKRRQRRRAHQNS; disulfide 3-6)”: in assay [1] (n = 5-10), the “[Ca^2+] response” value amounted to 752 ± 59 nM.

As for “HIV1 61-80 (NSQTHQASLSKQPTSQPRGD; Human immunodeficiency virus type 1) [peptide fragment of the C-terminal region of the HIV1 30-86 peptide]”, the “[Ca^2+] response” value in assay [1] (n = 5-10) is recorded as 56 ± 20 nM.

“HIV1 30-57 (Cys30-Cys34)(Cys 31-Cys37) (CCFHCQVCFITKALGISYGRKKRRQRRR; disulfide 1-5, 2-8) [HIV1 30-57 (Cys30-Cys34)(Cys31-Cys37)]”: the “[Ca^2+] response” value in assay [1] (n = 5-10) is 528 ± 60 nM.

Regarding “HIV1 30-86 (Cys30-Cys34)(Cys31-Cys37) (CCFHCQVCFITKALGISYGRKKRRQRRRAHQNSQTHQASLSKQPTSQPRGDPTGPKE; disulfide 1-5, 2-8)”, the “[Ca^2+] response” value in assay [1] (n = 5-10) turned out to be 390 ± 21 nM.

For “HIV1 41-60 (KALGISYGRKKRRQRRRAHQ; Human immunodeficiency virus type 1) [peptide fragment of the HIV1 30-86 peptide]”, the “[Ca^2+] response” value in assay [1] (n = 5-10) stood at 66 ± 13 nM.

Consider “Apelin: endogenous ligands at the orphan G-protein coupled receptor, APJ (QRPRLSHKGPMPF; Apelin-13; UniProt Q9ULZ1 65-77, looked up)”, for which the “increase in arterial pressure” value in assay [2] (microinjection into either of the NTS and the RVLM) is 10-20 mm Hg. Besides, the “decreased phrenic nerve discharge amplitude” value in assay [2] (microinjection into the NTS) is recorded as “up to 30%”.
